The test system of data set [1] is HepG2 cells. The experiment in a line: Carbon tetrachloride (CCl4)-induced in vitro hepatocyte injury, MTT. Conditions: HepG2, 10 μM; for Cell survival rate increase (%): 0.6% CCl4, versus model group. The data set is classed as cell-based, human. Here is the method: Human liver cancer HepG2 cells well retained the characteristics of normal human hepatocytes, and they were grown in a DMEM medium containing 10% of fetal calf cerium (containing 100 U/mL of penicillin and 100 μg/mL of streptomycin) at the culturing conditions: 37° C., 5% of CO2 and a saturated humidity. A solution containing 0.25% of trypsin and 0.02% of EDTA was used for digestions and passages.
A MTT method was adopted. The HepG2 cells were inoculated in a 96-well cell culture plate, and after 24 hour cultures, the (+)IMM-H014, the (−)IMM-H014 and the (±)IMM-H014 were added in a non-toxic concentration whilst the carbon tetrachloride (CCl4, a final concentration of 0.6%) was added thereto. A Bicyclol positive control group, a solvent control group and a model group were set for the experiment. They acted on the cells continuously for 24 h. The culture solution was discarded, and to each well, 100 μL of a MTT (0.5 mg/mL) solution was added to culture for 4 hours. The MTT solution was discarded, and to each well, 150 μL of DMSO was added. The mixture was oscillated by a mixing oscillator, and the absorbance value was measured at a wavelength of 570 nm in a microplate reader. Cell survival rate (%)=(OD mean of administration group/OD mean of solvent control group)×100%.
The data were presented as a number mean±standard deviation (x±SD).

The nature of data set [2]: Pharmacokinetics in male SD rats after intragastric administration. It is filed as in vivo, rat. The following applies: 50 mg/kg intragastric, plasma. Here is the method:
Male SD rats were intragastrically administrated with the single enantiomer and racemate of IMM-H014, to compare their pharmacokinetic characteristics in rat bodies.
36 male SD rats were randomly divided into 6 groups, 6 animals in each group, including: (+)IMM-H014 intragastric administration group, (−)IMM-H014 intragastric administration group, and (±)IMM-H014 intragastric administration group. The administration dosage was 50 mg/kg. The rats were in fasting for 12 hours before the administrations and they could freely drink water.
100 mg of the IMM-H014 raw material drug was weighed and dissolved in 20 ml of purified water to prepare a 5 mg/ml administration solution, which was administrated (1 ml/100 g) in a single dose according to body weights.
At 0 hour before administrations, and at 5 min, 10 min, 30 min, 1 h, 2 h, 3 h, 5 h, 8 h, 12 h and 24 h after administrations, 250 μL of blood was taken from fundus plexus venosus, placed in an EP tube containing 10 μL of heparin sodium, and centrifuged at 4000 rpm for 10 min, and then the blood plasma was taken and stored in a refrigerator at −80° C.
50 μL of a plasma sample was precisely pipetted, and after 10 μL of an internal standard working solution was added thereto, they were placed in a 1.5 ml EP. They were whirled for 30 s and added with 500 μl of ethyl acetate. Then, they were whirled and vibrated for 5 min, and after being kept still for 10 min at 4° C., they were centrifuged for 5 min at 13000 r. The supernatant was taken and dried by blowing N2 at 30° C. The residue was re-dissolved by adding 100 μL of the initial mobile phase and centrifuged for 5 min at 13000 r, and the supernatant was transferred into a sampling bottle for measurements.
• Chromatographic column: Agilent ZORBAX SB-C18 (2.1×100 mm, 3.5 μm) • Mobile phase A: water (0.1% formic acid, 1 mM ammonium acetate); mobile • phase B: acetonitrile (0.1% formic acid) • Column temperature: at 35° C.; sampling amount: 3 μL • Elution: 0-2 min: 40%-53% of the B; 2-3 min: 53%-40% of the B 4.4 Mass Spectrometry Conditions
Ion source: ESI; detection mode: positive ions; temperature of drying gases: 300° C.; flow rate of drying gases: nitrogen gas, 11 L/min; atomizing gas: nitrogen, […]; capillary voltage: 4000 V; scanning mode: Multiple Reaction Measurement (MRM); ion pairs and related voltage parameters were shown below:
The original data obtained after samples were collected was treated by adopting MassHunter QQQ data processing software, to obtain blood-drug concentration data; then, the pharmacokinetic parameters were calculated through DAS software; finally, the t-test was performed by adopting SPSS software, to compare if there were statistical differences in drugs having the same optical activity but in different batches and in drugs having different optical activities, wherein the P<0.05 was considered to have significant differences. In the study, by intragastrically administrating 3 groups of SD rats with the single enantiomer and racemate of the IMM-H014 respectively, their pharmacokinetic characteristics in the rat bodies were studied.

Data set [3] deals with ConA-induced acute immune liver injuries. The experiment in a line: ConA-induced mouse acute immune liver injury model. The data set is classed as in vivo. The following applies: mouse serum; for ALT (U/L) / AST (U/L) / LDH (U/L): 200 mg/kg intragastric once a day x3, 20 mg/kg ConA tail vein, n = 10; for ALT reduction percent (%) / AST reduction percent (%) / LDH reduction percent (%): 200 mg/kg, versus ConA model group. As to the method: 1. Method for Establishment of a ConA-Induced Mouse Acute Immune Liver Injury Model and Method of Administration SPF-grade male ICR mice (20-22 g), after acclimatization, were randomly divided into 5 groups: a blank control group, a ConA-induced model group, a 200 mg/kg (+)IMM-H014 group, a 200 mg/kg (−)IMM-H014 group, and a 200 mg/kg (±)IMM-H014 group, 10 mice in each group. Each administration group was intragastrically administrated once a day, and it was totally administrated three times. The blank control group and the model group were intragastrically administrated with the same dose of physiological saline. At 2 hours after the last administration, the mice in each group except the blank control group, were injected once with 20 mg/kg ConA in the tail vein, and each administration dose was 10 ml/kg. The mice were in fasting but not in water deprivation for 16 h and then the animals waited for further treatment. 2. Determination of Biochemical Indexes The mice were decapitated and blood was taken, and the blood samples were kept still at room temperature for 2 h and centrifuged at 4000 rpm for 10 min, to separate the serum. The ALT, AST and LDH contents in the serum were detected with a full-automatic biochemical analyzer. The data each were presented as a number mean±standard deviation (x±SD).

Where two headings read alike, the source gives them in different places.

The values below come from patent US12630520B2, “Left-handed bicyclic morpholine and salt thereof, preparation method therefor, pharmaceutical composition, and use” (Institute of Materia Medica, Chinese Academy of Medical …, priority 2019, dated 2026).

The term Cmax denotes the peak of the concentration-time curve. A word on the Tmax: it is the time from dosing to the highest level.

In the case of `COC(=O)c1cc(OC)c2c(c1-c1c(CN3CCOCC3)cc(OC)c3c1OCO3)OCO2` [(−)IMM-H014], the “Survival rates (%)” value in data set [1] (0.6% CCl4, 24 h, MTT) turned out to be 104.44%. Besides, in data set [1], the “Cell survival rate increase (%)” value was 34.66%. For the same molecule, in data set [2], the “AUC (0-t)” value stood at 5.866 ± 2.979 µg·h/mL, the “AUC (0-∞)” value amounted to 5.892 ± 3.005 µg·h/mL, the CLz/F worked out at 10.7 ± 6.2 L/h/kg and the highest concentration (Cmax) was 3.28 ± 1.579 µg/mL. Also, in data set [2], the time of peak concentration (Tmax) was 18 ± 10.8 min and the t1/2z was found to be 74.88 ± 19.8 min. Also, in data set [3], the “ALT (U/L)” value was 25.6 ± 17.4^###& U/L, the “AST (U/L)” value is reported as 252.9 ± 233.5^##& U/L, the “LDH (U/L)” value is 1690.0 ± 929.3^##& U/L and the “ALT reduction percent (%)” value is reported as 97.3%. Besides, in data set [3], the “AST reduction percent (%)” value turned out to be 72.9% and the “LDH reduction percent (%)” value turned out to be 54.4%.

Take `COC(=O)c1cc(OC)c2c(c1-c1c(CN3CCOCC3)cc(OC)c3c1OCO3)OCO2` [(+)IMM-H014]: in data set [1] (0.6% CCl4, 24 h, MTT), the “Survival rates (%)” value was 87.32%. The “OD Mean ± SD” value in data set [1] (0.6% CCl4, 24 h, MTT, 570 nm) amounted to 0.799 ± 0.014. For the same molecule, the “Cell survival rate increase (%)” value in data set [1] came out at 12.59%. In data set [2], the “AUC (0-t)” value turned out to be 2.876 ± 1.978 µg·h/mL, the “AUC (0-∞)” value came to 2.877 ± 1.977 µg·h/mL, the CLz/F was determined as 25.0 ± 15.7 L/h/kg and the t1/2z came to 59 ± 15.6 min. Moreover, the peak concentration (Cmax) in data set [2] (male, SD, rat, po, 50 mg/kg, read-out: Cmax) was found to be 2.28 ± 2 µg/mL. For the same molecule, the Tmax in data set [2] (male, SD, rat, po, 50 mg/kg, read-out: Tmax) turned out to be 20 ± 11.4 min. Also, in data set [3], the “ALT (U/L)” value was determined as 44.4 ± 29.1 U/L, the “AST (U/L)” value is listed as 514.3 ± 310.7 U/L, the “LDH (U/L)” value turned out to be 2680.0 ± 1190.8 U/L and the “ALT reduction percent (%)” value was determined as 95.3%. For the same molecule, in data set [3], the “AST reduction percent (%)” value came to 44.8% and the “LDH reduction percent (%)” value worked out at 27.6%.

`COC(=O)c1cc(OC)c2c(c1-c1c(CN3CCOCC3)cc(OC)c3c1OCO3)OCO2` (racemic) [(±)IMM-H014]: in data set [1] (0.6% CCl4, 24 h, MTT), the “Survival rates (%)” value is listed as 92.09%. For the same molecule, the “Cell survival rate increase (%)” value in data set [1] was determined as 18.74%. Besides, in data set [2], the “AUC (0-t)” value worked out at 5.242 ± 3.447 µg·h/mL, the “AUC (0-∞)” value is 5.268 ± 3.432 µg·h/mL, the CLz/F is listed as 14.0 ± 9.3 L/h/kg and the Cmax amounted to 3.324 ± 2.307 µg/mL. Also, in data set [2], the Tmax stood at 12.5 ± 9 min and the t1/2z is 72.36 ± 16.2 min. Further, in data set [3], the “ALT (U/L)” value was 107.0 ± 108.7 U/L, the “AST (U/L)” value stood at 725.0 ± 417.3 U/L, the “LDH (U/L)” value is 3466.7 ± 1772.4 U/L and the “ALT reduction percent (%)” value is 88.6%. In data set [3], the “AST reduction percent (%)” value is 22.2% and the “LDH reduction percent (%)” value is reported as 6.4%.
